Reference: patent publication US20260022118A1, “HETEROCYCLIC COMPOUNDS AS NRAS INHIBITORS” (Board of Regents, The University of Texas System, priority 2023, published 2026)

System: THP-1 cells expressing G12D (NRAS G12D)
Assay: Inhibition of NRAS G12D-mediated phosphorylation of ERK (AlphaLISA p-ERK1/2) in THP-1 cells
Type: cell-based
Conditions: Homo sapiens, THP-1, 2 h, 2 hours incubation, HBSS with 0% or 10% FBS, p-ERK1/2 (Thr202/Tyr204) AlphaLISA, read-out: pERK THP-1 IC50
Description: Inhibition of NRAS G12D-Mediated Phosphorylation of ERK by Exemplary Compounds of Formulas I, II, and III.
This Example illustrates that exemplary compounds and salts thereof described herein inhibit the phosphorylation of ERK downstream of NRAS G12D.
THP-1 cells (ATCC TIB-202) expressing G12D were maintained in RPMI-1640 medium supplemented with 10% fetal bovine serum (FBS), 0.05 mM 2-mercaptoethanol, and penicillin/streptomycin. Cells (20,000/well) were seeded onto a 384 well plate in 20 μL of HBSS supplemented with 0% or 10% FBS. Cells were incubated in the absence or presence of various concentrations of test compound (final 1% DMSO) for 2 hours. p-ERK expression was assessed using the AlphaLISA SureFire Ultra p-ERK1/2 (Thr202/Tyr204) (PerkinElmer®, ALSU-PERK-A10K) following manufacturer recommendation. Plates were read on a PerkinElmer® Envision Multimode plate reader. Dose-response curves were analyzed using IC50 regression curve fitting (GeneData Screener). Curves were plotted as a percent control and normalized by high controls without inhibitor (100%), and low controls (0%) containing 1 μM of trametinib, a potent MEK inhibitor.

Structure (SMILES) | IC50
C#Cc1c(F)ccc2cc(O)cc(-c3nc(C(=C)C)c4c([C@H]5[C@@H]6CNC[C@@H]65)nn(C5CC5)c4c3F)c12 [Example 53, 4-(3-((1R,5S,6r)-3-azabicyclo[3.1.0]hexan-6-yl)-1-cyclopropyl-7-fluoro-4-(prop-1-en-2-yl)-1H-pyrazolo[4,3-c]pyridin-6-yl)-5-ethynyl-6-fluoronaphthalen-2-ol] | 5.81 nM
C#Cc1c(F)ccc2cc(O)cc(-c3nc(C4CCC4)c4c([C@H]5[C@@H]6CNC[C@@H]65)nn(C5CC5)c4c3F)c12 [Example 54, 4-[3-(3-azabicyclo[3.1.0]hexan-6-yl)-4-cyclobutyl-1-cyclopropyl-7-fluoro-pyrazolo[4,3-c]pyridin-6-yl]-5-ethynyl-6-fluoro-naphthalen-2-ol] | 16.4 nM
C#Cc1c(F)ccc2cc(O)cc(-c3nc(C(F)(F)F)c4c([C@H]5[C@@H]6CNC[C@@H]65)nn(C5CC5)c4c3F)c12 [Example 55, 4-[3-(3-azabicyclo[3.1.0]hexan-6-yl)-1-cyclopropyl-7-fluoro-4-(trifluoromethyl)pyrazolo[4,3-c]pyridin-6-yl]-5-ethynyl-6-fluoro-naphthalen-2-ol] | 499 nM
C#Cc1c(F)ccc2cc(O)cc(-c3nc(C(C)(C)O)c4c([C@H]5[C@@H]6CNC[C@@H]65)nn(C5CC5)c4c3F)c12 [Example 56, 4-[3-(3-azabicyclo[3.1.0]hexan-6-yl)-1-cyclopropyl-7-fluoro-4-(1-hydroxy-1-methyl-ethyl)pyrazolo[4,3-c]pyridin-6-yl]-5-ethynyl-6-fluoro-naphthalen-2-ol] | 152 nM
C#Cc1c(F)ccc2cc(O)cc(-c3nc(OC4COC4)c4c([C@H]5[C@@H]6CNC[C@@H]65)nn(C5CC5)c4c3F)c12 [Example 71, 4-(3-((1R,5S,6r)-3-azabicyclo[3.1.0]hexan-6-yl)-1-cyclopropyl-7-fluoro-4-(oxetan-3-yloxy)-1H-pyrazolo[4,3-c]pyridin-6-yl)-5-ethynyl-6-fluoronaphthalen-2-ol] | > 10000 nM
C#Cc1c(F)ccc2cc(O)cc(-c3nc(N(C)C)c4c([C@H]5[C@@H]6CNC[C@@H]65)nn(C5CC5)c4c3F)c12 [Example 78, 4-(3-((1R,5S,6r)-3-azabicyclo[3.1.0]hexan-6-yl)-1-cyclopropyl-4-(dimethylamino)-7-fluoro-1H-pyrazolo[4,3-c]pyridin-6-yl)-5-ethynyl-6-fluoronaphthalen-2-ol] | 89.2 nM
C#Cc1c(F)ccc2cc(O)cc(-c3nc(N4CCC4)c4c([C@H]5[C@@H]6CNC[C@@H]65)nn(C5CC5)c4c3F)c12 [Example 79, 4-(4-(azetidin-1-yl)-3-((1R,5S,6r)-3-azabicyclo[3.1.0]hexan-6-yl)-1-cyclopropyl-7-fluoro-1H-pyrazolo[4,3-c]pyridin-6-yl)-5-ethynyl-6-fluoronaphthalen-2-ol] | 603 nM
C#Cc1c(F)ccc2cc(O)cc(-c3nc(N(CC)CC)c4c([C@H]5[C@@H]6CNC[C@@H]65)nn(C5CC5)c4c3F)c12 [Example 80, 4-(3-((1R,5S,6r)-3-azabicyclo[3.1.0]hexan-6-yl)-1-cyclopropyl-4-(diethylamino)-7-fluoro-1H-pyrazolo[4,3-c]pyridin-6-yl)-5-ethynyl-6-fluoronaphthalen-2-ol] | 126 nM
C#Cc1c(F)ccc2cc(O)cc(-c3nc(N(C)CC)c4c([C@H]5[C@@H]6CNC[C@@H]65)nn(C5CC5)c4c3F)c12 [Example 81, 4-(3-((1R,5S,6r)-3-azabicyclo[3.1.0]hexan-6-yl)-1-cyclopropyl-4-(ethyl(methyl)amino)-7-fluoro-1H-pyrazolo[4,3-c]pyridin-6-yl)-5-ethynyl-6-fluoronaphthalen-2-ol] | 74.6 nM
C#Cc1c(F)ccc2cc(O)cc(-c3nc(C(C)=O)c4c([C@H]5[C@@H]6CNC[C@@H]65)nn(C5CC5)c4c3F)c12 [Example 84, 1-(3-((1R,5S,6r)-3-azabicyclo[3.1.0]hexan-6-yl)-1-cyclopropyl-6-(8-ethynyl-7-fluoro-3-hydroxynaphthalen-1-yl)-7-fluoro-1H-pyrazolo[4,3-c]pyridin-4-yl)ethan-1-one] | 458 nM
C#Cc1c(F)ccc2cc(O)cc(-c3nc(C(C)O)c4c([C@H]5[C@@H]6CNC[C@@H]65)nn(C5CC5)c4c3F)c12 (stereo partly drawn) [Example 87, 4-(3-((1R,5S,6r)-3-azabicyclo[3.1.0]hexan-6-yl)-1-cyclopropyl-7-fluoro-4-(1-hydroxyethyl)-1H-pyrazolo[4,3-c]pyridin-6-yl)-5-ethynyl-6-fluoronaphthalen-2-ol] | 112 nM
C#Cc1c(F)ccc2cc(O)cc(-c3nc4c5c(nn(C)c5c3F)N3C[C@H]5CC[C@H](N5)[C@H]3CO4)c12 [Example 95, 5-ethynyl-6-fluoro-4-[(4R,7S,8S)-14-fluoro-16-methyl-10-oxa-2,12,16,17,19-pentazapentacyclo[9.6.1.14,7.02,8.015,18]nonadeca-1(17),11(18),12,14-tetraen-13-yl]naphthalen-2-ol] | > 10000 nM

More lines, now with the values ahead:

IC50 | Structure (SMILES)
3730 nM | C#Cc1c(F)ccc2cc(O)cc(-c3nc(C(=C)C)c4c(N5C[C@@H]6CC[C@H]5CN6)nn(C5CC5)c4c3F)c12 [Example 89, 4-(3-((1S,4S)-2,5-diazabicyclo[2.2.2]octan-2-yl)-1-cyclopropyl-7-fluoro-4-(prop-1-en-2-yl)-1H-pyrazolo[4,3-c]pyridin-6-yl)-5-ethynyl-6-fluoronaphthalen-2-ol]
9260 nM | C#Cc1c(F)ccc2cc(O)cc(-c3ncc4c(NCCN)nn(C)c4c3F)c12 [Example 93, 4-(3-((2-aminoethyl)amino)-7-fluoro-1-methyl-1H-pyrazolo[4,3-c]pyridin-6-yl)-5-ethynyl-6-fluoronaphthalen-2-ol]
> 10000 nM | C#Cc1c(F)ccc2cc(O)cc(-c3ncc4c(C5[C@H]6CNC[C@@H]56)nn5c4c3OCC5)c12 (stereo partly drawn) [Example 94, 4-[3-[(1S,5R)-3-azabicyclo[3.1.0]hexan-6-yl]-9-oxa-1,2,6-triazatricyclo[6.3.1.04,12]dodeca-2,4,6,8(12)-tetraen-7-yl]-5-ethynyl-6-fluoro-naphthalen-2-ol]
9270 nM | C#Cc1c(F)ccc2cc(O)cc(-c3ncc4c(C5[C@H]6CNC[C@@H]56)nc(C)n4c3F)c12 (stereo partly shown) [Example 98, 4-[1-(3-azabicyclo[3.1.0]hexan-6-yl)-5-fluoro-3-methyl-imidazo[1,5-a]pyrazin-6-yl]-5-ethynyl-6-fluoro-naphthalen-2-ol]
> 10000 nM | C#Cc1c(F)ccc2cc(O)cc(-c3ncc4c([C@H]5[C@@H]6CNC(COC)[C@@H]65)nn(C5CC5)c4c3F)c12 (stereo partly drawn) [Example 99, 4-(1-cyclopropyl-7-fluoro-3-((1S,5R,6S)-2-(methoxymethyl)-3-azabicyclo[3.1.0]hexan-6-yl)-1H-pyrazolo[4,3-c]pyridin-6-yl)-5-ethynyl-6-fluoronaphthalen-2-ol]
> 10000 nM | C#Cc1c(F)ccc2cc(O)cc(-c3ncc4c(N5C[C@@H]6CC[C@H]5CN6)nn(C5CC5)c4n3)c12 [Example 101, 4-(3-((1S,4S)-2,5-diazabicyclo[2.2.2]octan-2-yl)-1-cyclopropyl-1H-pyrazolo[3,4-d]pyrimidin-6-yl)-5-ethynyl-6-fluoronaphthalen-2-ol]
> 10000 nM | C#Cc1c(F)ccc2cc(O)cc(-c3ncc4c(N5C[C@@H]6CC[C@H]5CN6)c(C)n(C)c4c3F)c12 [Example 107, 4-(3-((1S,4S)-2,5-diazabicyclo[2.2.2]octan-2-yl)-7-fluoro-1,2-dimethyl-1H-pyrrolo[3,2-c]pyridin-6-yl)-5-ethynyl-6-fluoronaphthalen-2-ol]
